Source: the supplement of paper PMC11208160

Assay: recombinant barcode read abundance after kanamycin selection (control-corrected) (log10(CPM+1)); higher = more efficient recombination; sequences stand for … in AGTGCAGAGAAAATCGGCCAGTTTTCTCTGCCTGCAGTCCGCATGCCGT…AGATTTATGCAGCGGACTGCCTTTCTCCCAAAGTGATAAACCGGACAGTATCATGGACCGGTTTTCCCGGTAATCCGTATTTGCAAGGTTGGTTTCACT; site = the 11-nt target
Outline: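 For this pooled screen, each oligo contained a promoter, a target, a barcode and the J23119-driven first 104 bases of the bridge RNA. Gibson cloning placed it into a vector supplying the remaining 73 bp and a T7-inducible recombinase, and the pool was co-electroporated into E. coli with a donor plasmid. Recombination efficiency is derived from barcode counts per million at recombinant junctions after averaging and control correction, and is expressed on a log scale as log10(CPM+1), with selection on chloramphenicol/ampicillin/kanamycin plus 0.1 mM IPTG against a chloramphenicol/ampicillin LB agar control.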
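Also: IS621 recombinase and bridge RNA in Escherichia coli cells.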

Sequence: CACAACACTTGGGTTCTAACCTGTTGCCT (site CACAACACTAG)
- recombinant barcode read abundance (log10): 1.84

Sequence: CACAACACTTGGGTTCTAACCTGTTGCCT (site CACACCACTAG)
- recombinant barcode read abundance (log10): 0.287

Sequence: CACAACACTTGGGTTCTAACCTGTTGCCT (site CACAGCACTAG)
- recombinant barcode read abundance (log10): 0.0135

Sequence: CACAACACTTGGGTTCTAACCTGTTGCCT (site CACATCACTAG)
- recombinant barcode read abundance (log10): 0.0296

Sequence: CACAAGTCTTGGGTTCTAACCTGTTGCGT (site CACAAGTCTAC)
- recombinant barcode read abundance (log10): 1.38

Sequence: CACAAGTCTTGGGTTCTAACCTGTTGCGT (site CACCAGTCTCC)
- recombinant barcode read abundance (log10): 0.0392

Sequence: CACACCACTTGGGTTCTAACCTGTTGCCT (site CACAACACTAG)
- recombinant barcode read abundance (log10): 0.243

Sequence: CACACCACTTGGGTTCTAACCTGTTGCCT (site CACACCACTAG)
- recombinant barcode read abundance (log10): 0.698

Sequence: CACACCACTTGGGTTCTAACCTGTTGCCT (site CACAGCACTAG)
- recombinant barcode read abundance (log10): 0.211

Sequence: CACACCACTTGGGTTCTAACCTGTTGCCT (site CACATCACTAG)
- recombinant barcode read abundance (log10): 0.108

Sequence: CACACCGCTTGGGTTCTAACCTGTTGCCT (site CACACCGCTAG)
- recombinant barcode read abundance (log10): 1.62

Sequence: CACACCGCTTGGGTTCTAACCTGTTGCCT (site CACACGGCTAG)
- recombinant barcode read abundance (log10): 0.0403

Sequence: CACACTCCTTGGGTTCTAACCTGTTGCAG (site CACACTCCTCT)
- recombinant barcode read abundance (log10): 0.498

Sequence: CACACTCCTTGGGTTCTAACCTGTTGCAG (site CAGACGCCTCT)
- recombinant barcode read abundance (log10): 0.193

Sequence: CACAGTGCTTGGGTTCTAACCTGTTGCCT (site CACAGTGCTAG)
- recombinant barcode read abundance (log10): 0.235

Sequence: CACAGTGCTTGGGTTCTAACCTGTTGCCT (site CAGAGTACTAG)
- recombinant barcode read abundance (log10): 0.0936

Sequence: CACATACCTTGGGTTCTAACCTGTTGCCG (site CACATACCTAC)
- recombinant barcode read abundance (log10): 0.0694

Sequence: CACATACCTTGGGTTCTAACCTGTTGCCG (site CACATACCTCG)
- recombinant barcode read abundance (log10): 0.443

Sequence: CACATACCTTGGGTTCTAACCTGTTGCGT (site CACATACCTAC)
- recombinant barcode read abundance (log10): 1.92

Sequence: CACATACCTTGGGTTCTAACCTGTTGCGT (site CACATACCTCG)
- recombinant barcode read abundance (log10): 0.0777

Sequence: CACATCGCTTGGGTTCTAACCTGTTGCCT (site CACATCGCTAG)
- recombinant barcode read abundance (log10): 1.08

Sequence: CACATCGCTTGGGTTCTAACCTGTTGCCT (site TACTTCGCTAG)
- recombinant barcode read abundance (log10): 0.155

Sequence: CACATGGCTTGGGTTCTAACCTGTTGCCG (site CACAGGGCTCC)
- recombinant barcode read abundance (log10): 0.159

Sequence: CACATGGCTTGGGTTCTAACCTGTTGCCG (site CACATGGCTCG)
- recombinant barcode read abundance (log10): 0.259

Sequence: CACCAACCTTGGGTTCTAACCTGTTGCCT (site CACCAAACTAG)
- recombinant barcode read abundance (log10): 0.112

Sequence: CACCAACCTTGGGTTCTAACCTGTTGCCT (site CACCAACCTAG)
- recombinant barcode read abundance (log10): 0.313

Sequence: CACCAGTCTTGGGTTCTAACCTGTTGCGG (site CACAAGTCTAC)
- recombinant barcode read abundance (log10): 0.0664

Sequence: CACCAGTCTTGGGTTCTAACCTGTTGCGG (site CACCAGTCTCC)
- recombinant barcode read abundance (log10): 2.14

Sequence: CACCCTACTTGGGTTCTAACCTGTTGCCT (site AACCCTACTAG)
- recombinant barcode read abundance (log10): 0.04

Sequence: CACCCTACTTGGGTTCTAACCTGTTGCCT (site CACCCTACTAG)
- recombinant barcode read abundance (log10): 1.26

Sequence: CACCCTACTTGGGTTCTAACCTGTTGCCT (site GACCCTACTAG)
- recombinant barcode read abundance (log10): 0.0997

Sequence: CACCCTACTTGGGTTCTAACCTGTTGCCT (site TACCCTACTAG)
- recombinant barcode read abundance (log10): 0.0523

Sequence: CACCGTCCTTGGGTTCTAACCTGTTGCGT (site CACCGTCCTAC)
- recombinant barcode read abundance (log10): 3.03

Sequence: CACCGTCCTTGGGTTCTAACCTGTTGCGT (site CACCGTCCTAT)
- recombinant barcode read abundance (log10): 1.57

Sequence: CACCTGACTTGGGTTCTAACCTGTTGCCG (site CACCTGACTCG)
- recombinant barcode read abundance (log10): 0.599

Sequence: CACCTGACTTGGGTTCTAACCTGTTGCCG (site CACCTGTCTCG)
- recombinant barcode read abundance (log10): 0.0187

Sequence: CACCTGTCTTGGGTTCTAACCTGTTGCGG (site AGATATACTAA)
- recombinant barcode read abundance (log10): 0.0793

Sequence: CACCTGTCTTGGGTTCTAACCTGTTGCGG (site CACCTGTCTCC)
- recombinant barcode read abundance (log10): 1.8

Sequence: CACGATCCTTGGGTTCTAACCTGTTGCTT (site AGTCGGACTGT)
- recombinant barcode read abundance (log10): 0.11

Sequence: CACGATCCTTGGGTTCTAACCTGTTGCTT (site CACGATCCTAA)
- recombinant barcode read abundance (log10): 1.52

Sequence: CACGCAACTTGGGTTCTAACCTGTTGCTT (site CACGCAACTAA)
- recombinant barcode read abundance (log10): 0.476

Sequence: CACGCAACTTGGGTTCTAACCTGTTGCTT (site GAGGCAACTAA)
- recombinant barcode read abundance (log10): 0.888

Sequence: CACTATCCTTGGGTTCTAACCTGTTGCCT (site CAATATCCTAG)
- recombinant barcode read abundance (log10): 0.0585

Sequence: CACTATCCTTGGGTTCTAACCTGTTGCCT (site CACTATCCTAG)
- recombinant barcode read abundance (log10): 2.16

Sequence: CACTATCCTTGGGTTCTAACCTGTTGCCT (site CAGTATCCTAG)
- recombinant barcode read abundance (log10): 0.157

Sequence: CACTATCCTTGGGTTCTAACCTGTTGCCT (site CATTATCCTAG)
- recombinant barcode read abundance (log10): 0.0363

Sequence: CACTCTGCTTGGGTTCTAACCTGTTGCCT (site CAATCTGCTAG)
- recombinant barcode read abundance (log10): 0.617

Sequence: CACTCTGCTTGGGTTCTAACCTGTTGCCT (site CACTCTGCTAG)
- recombinant barcode read abundance (log10): 0.569

Sequence: CACTCTGCTTGGGTTCTAACCTGTTGCCT (site CAGTCTGCTAG)
- recombinant barcode read abundance (log10): 0.0477

Sequence: CACTCTGCTTGGGTTCTAACCTGTTGCCT (site CATTCTGCTAG)
- recombinant barcode read abundance (log10): 0.332

Sequence: CACTGGGCTTGGGTTCTAACCTGTTGCAG (site CACTGGGCTCT)
- recombinant barcode read abundance (log10): 0.791

Sequence: CACTGGGCTTGGGTTCTAACCTGTTGCAG (site CACTTGGCTCT)
- recombinant barcode read abundance (log10): 0.115

Sequence: CACTGTTCTTGGGTTCTAACCTGTTGCCT (site CACTGATCTAG)
- recombinant barcode read abundance (log10): 0.325

Sequence: CACTGTTCTTGGGTTCTAACCTGTTGCCT (site CACTGCTCTAG)
- recombinant barcode read abundance (log10): 0.0508

Sequence: CACTGTTCTTGGGTTCTAACCTGTTGCCT (site CACTGGTCTAG)
- recombinant barcode read abundance (log10): 0.069

Sequence: CACTGTTCTTGGGTTCTAACCTGTTGCCT (site CACTGTTCTAG)
- recombinant barcode read abundance (log10): 0.737

Sequence: CACTTCCCTTGGGTTCTAACCTGTTGCAT (site CACTTCCCTAA)
- recombinant barcode read abundance (log10): 0.0158

Sequence: CACTTCCCTTGGGTTCTAACCTGTTGCAT (site CACTTCCCTAC)
- recombinant barcode read abundance (log10): 0.106

Sequence: CACTTCCCTTGGGTTCTAACCTGTTGCAT (site CACTTCCCTAG)
- recombinant barcode read abundance (log10): 0.316

Sequence: CACTTCCCTTGGGTTCTAACCTGTTGCAT (site CACTTCCCTAT)
- recombinant barcode read abundance (log10): 1.93

Sequence: CACTTCCCTTGGGTTCTAACCTGTTGCGA (site AGTGAAGCTGT)
- recombinant barcode read abundance (log10): 0.222

Sequence: CACTTCCCTTGGGTTCTAACCTGTTGCGA (site CACTTCCCTTC)
- recombinant barcode read abundance (log10): 0.492

Sequence: CACTTCCCTTGGGTTCTAACCTGTTGCGT (site CACTTCCCTAA)
- recombinant barcode read abundance (log10): 0.0684

Sequence: CACTTCCCTTGGGTTCTAACCTGTTGCGT (site CACTTCCCTAC)
- recombinant barcode read abundance (log10): 2.4

Sequence: CACTTCCCTTGGGTTCTAACCTGTTGCGT (site CACTTCCCTAG)
- recombinant barcode read abundance (log10): 0.402

Sequence: CACTTCCCTTGGGTTCTAACCTGTTGCGT (site CACTTCCCTAT)
- recombinant barcode read abundance (log10): 1.5
